From ChEMBL document CHEMBL4346729, “The discovery of novel 3-aryl-indazole derivatives as peripherally restricted pan-Trk inhibitors for the treatment of pain” (Bioorg Med Chem Lett, 2019)
Converted amounts (≈) assume the structure as drawn. The source made the active and inactive calls. The rule behind the calls is not given here.

How the values were obtained:
[1] = Apparent permeability from apical to basolateral side in MDCK cells at 50 umol/L at pH 7.4 incubated for 30 mins by LC-MS/MS analysis; assay type: ADME, cell-based, Canis lupus familiaris; conditions: dog
[2] = Solubility of test compound; assay type: physicochemical
[3] = Intrinsic clearance in human liver microsomes; assay type: ADME, Microsome; conditions: read-out: CLH
[4] = Apparent permeability from apical to basolateral side in MDCK cells at 50 umol/L at pH 6.5 incubated for 30 mins by LC-MS/MS analysis; assay type: ADME, cell-based, Canis lupus familiaris; conditions: dog
[5] = tested on: Rattus norvegicus; test: Antinociceptive activity in CFA induced thermal hypersensitivity Sprague-Dawley rat model assessed as increase in paw withdrawal latency at 100 mg/kg, po after 1 hr; assay type: functional, organism-based

Papp A→B at 0.5 h, 50 µM [1] | solubility [2] | CLint scaled [3] | Papp A→B at 0.5 h, 50 µM [4] | SMILES | Activity [5]
73.2 ×10⁻⁶ cm/s | 15.2 µM (≈ 6.03 µg/mL) | 443 mL/min/kg |  | CS(=O)(=O)c1ccc(F)cc1CNc1ccc2[nH]nc(-c3ccccn3)c2c1 | 
34 ×10⁻⁶ cm/s | 80.1 µM (≈ 32 µg/mL) | 137 mL/min/kg |  | Cn1ccc(-c2n[nH]c3ccc(NCc4cc(F)ccc4S(C)(=O)=O)cc23)n1 | 
7.3 ×10⁻⁶ cm/s |  | 417 mL/min/kg |  | CN(Cc1ccccc1)c1ccc2[nH]nc(-c3ccc(N4CCNCC4)nc3)c2c1 | 
61.5 ×10⁻⁶ cm/s | 23 µM (≈ 9.12 µg/mL) | 793 mL/min/kg |  | CS(=O)(=O)c1ccc(F)cc1CNc1ccc2[nH]nc(-c3cccnc3)c2c1 | 
0.3 to 0.4 ×10⁻⁶ cm/s | 38.7 µM (≈ 18.6 µg/mL) | 176 to 178 mL/min/kg | 0.3 ×10⁻⁶ cm/s | CS(=O)(=O)c1ccc(F)cc1CNc1ccc2[nH]nc(-c3ccc(N4CCNCC4)nc3)c2c1 | 
0.3 ×10⁻⁶ cm/s |  | 323 mL/min/kg |  | CS(=O)(=O)Nc1ccccc1CNc1ccc2[nH]nc(-c3ccc(OC4CCNCC4)nc3)c2c1 | 
1.2 ×10⁻⁶ cm/s |  | 69.5 to 70 mL/min/kg |  | CS(=O)(=O)Nc1ccccc1CNc1ccc2[nH]nc(-c3ccc(N4CCNCC4)nc3)c2c1 | 
13 ×10⁻⁶ cm/s |  | 12 mL/min/kg |  | c1ccc(CNc2ccc3[nH]nc(-c4ccc(N5CCNCC5)nc4)c3c2)cc1 | 
 |  |  |  | CC(C)Cc1ccc(C(C)C(=O)O)cc1 (stereo unspecified) | Active
9.6 ×10⁻⁶ cm/s |  | 694 mL/min/kg |  | c1ccc(COc2ccc3[nH]nc(-c4ccc(N5CCNCC5)nc4)c3c2)cc1 | 
12.5 ×10⁻⁶ cm/s |  | 74 mL/min/kg | 0.4 ×10⁻⁶ cm/s | CS(=O)(=O)c1ccccc1CNc1ccc2[nH]nc(-c3ccc(N4CCNCC4)nc3)c2c1 | 
 |  | 833 mL/min/kg |  | COc1cccc(-c2n[nH]c3ccc(NCc4ccccc4NS(C)(=O)=O)cc23)n1 | 
0.3 ×10⁻⁶ cm/s |  | 184 mL/min/kg |  | CS(=O)(=O)Nc1ccccc1CNc1ccc2[nH]nc(-c3ccc(NC4CCNCC4)nc3)c2c1 | 
 |  | 217 mL/min/kg |  | COc1cncc(-c2n[nH]c3ccc(NCc4ccccc4NS(C)(=O)=O)cc23)c1 | 
3.1 ×10⁻⁶ cm/s |  | 2730 mL/min/kg |  | c1ccc(CCc2ccc3[nH]nc(-c4ccc(N5CCNCC5)nc4)c3c2)cc1 | 
 |  | 359 mL/min/kg |  | COc1ccc(-c2n[nH]c3ccc(NCc4ccccc4NS(C)(=O)=O)cc23)cn1 | 
11 ×10⁻⁶ cm/s |  | 1740 mL/min/kg |  | CC(C)(Nc1ccc2[nH]nc(-c3ccc(N4CCNCC4)nc3)c2c1)c1ccccc1 | 
